Assay results from BindingDB's records for doi:10.1021/bi00445a011 (Harvard University, 1989).

Target: T1, 3-dehydroquinate synthase (Escherichia coli (strain K12), UniProt P07639)
T1 sequence (P07639 whole entry): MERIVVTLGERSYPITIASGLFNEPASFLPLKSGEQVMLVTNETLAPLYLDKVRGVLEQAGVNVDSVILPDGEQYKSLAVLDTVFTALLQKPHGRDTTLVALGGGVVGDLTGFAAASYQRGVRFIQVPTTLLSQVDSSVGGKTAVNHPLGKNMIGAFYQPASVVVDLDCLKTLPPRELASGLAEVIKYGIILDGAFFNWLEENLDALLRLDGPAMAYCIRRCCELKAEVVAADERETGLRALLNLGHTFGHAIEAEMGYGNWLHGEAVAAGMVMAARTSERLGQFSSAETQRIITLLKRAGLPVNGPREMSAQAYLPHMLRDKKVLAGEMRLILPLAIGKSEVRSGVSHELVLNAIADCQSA
Assay: Enzyme Inhibition
Excerpt: Enzyme inhibition using dehydroquinate synthase.

Compound	Ki [µM]
O=C(O)C1(O)CC(O)C(O)C(CP(=O)(O)O)O1 (configuration not stated) [2,4,5-trihydroxy-6-(phosphonatomethyl)oxane-2-carboxylate, 4]	0.12
O=C(O)C1CC(O)C(O)C(CP(=O)(O)O)O1 (configuration not stated) [4,5-dihydroxy-6-(phosphonatomethyl)oxane-2-carboxylate, 3]	35
